In publication PMC8218531 (Structure (London, England : 1993), 2021):
Where two headings read alike, the source gives them in different places.

Key:
SARS-CoV-2 M^pro [1] = target: T1, SARS-CoV-2 M^pro (Severe acute respiratory syndrome coronavirus 2, UniProt P0DTD1); test: Enzyme kinetics of M^pro with inhibitors; type: biochemical; settings: for in vitro activity against M^pro in words: compounds of this study with hydrophilic groups in S4
SARS-CoV-2 M^pro [2] = target: T1, SARS-CoV-2 M^pro; settings: cited from earlier work
M^pro = settings: covalent inhibitors, ref Dai et al., 2020, Ma et al., Qiao et al., 2021; cited from earlier work

Compound	in vitro activity against M^pro in words (SARS-CoV-2 M^pro [1])	IC50 in words (M^pro)	other results
CC(C)(O)CCOc1cc(Cl)cc(-c2cc(-c3c[nH]c(=O)[nH]c3=O)cn(-c3cccnc3)c2=O)c1 [Compound 29, 5-(3-(3-Chloro-5-(3-hydroxy-3-methylbutoxy)phenyl)-2-oxo-2H-[1,3'-bipyridin]-5-yl) pyrimidine-2,4(1H,3H)-dione]	high-nanomolar range		IC50 (SARS-CoV-2 M^pro [1]): 0.25 to 0.5 µM; decrease in activity compared with 11 (SARS-CoV-2 M^pro [1]; compared with compound 11): greater than 2 fold
N#Cc1ccccc1-c1cc(-c2ccccn2)cn(-c2ccccc2)c1=O [Perampanel, perampanel]			IC50 (SARS-CoV-2 M^pro [2]): 100 to 250 µM
O=C1CN(CCOc2cc(Cl)cc(-c3cc(-c4c[nH]c(=O)[nH]c4=O)cn(-c4cccnc4)c3=O)c2)CCN1 [Compound 50, 5-(3-(3-Chloro-5-(2-(3-oxopiperazin-1-yl)ethoxy)phenyl)-2-oxo-2H-[1,3'-bipyridin]-5-yl) pyrimidine-2,4(1H,3H)-dione]	high-nanomolar range		
CC(C)C[C@H](NC(=O)OCc1ccccc1)C(=O)N[C@@H](CC1CCNC1=O)C(O)S(=O)(=O)[O-].[Na+] (some centres unmarked) [GC-376]		Low-nanomolar	
O=CC(CC1CCNC1=O)NC(=O)C(Cc1cccc(F)c1)NC(=O)c1cc2ccccc2[nH]1 (centres unmarked) [Compound 11b]		Low-nanomolar	
O=CC(CC1CCNC1=O)NC(=O)C(CC1CCCCC1)NC(=O)c1cc2ccccc2[nH]1 (centres unmarked) [Compound 11a]		Low-nanomolar	
